One compound from US11505798B2, “Methods and compositions for treating inflammatory diseases” (The Regents of the University of California, priority 2019, dated 2022) can be followed below.

The test system of the assay is GAPLINC. Description: qPCR of GAPLINC in MDMs pretreated with NF-κB inhibitor, then LPS stimulation. It counts as cell-based, human. The following applies: MDMs pretreated with 10 uM, LPS 200 ng/ml for 6 h, vs DMSO. The text has this:
FIGS. 14A-14I show monocytes isolated from human PBMCs and differentiated into macrophages were transfected with control or GAPLINC siRNA. […] Data from RNA-seq performed in biological duplicates. FIG. 14C: GAPLINC isoforms in MDMs as determined by Nanopore-based R2C2 sequencing. Data from Nanopore-sequencing performed in biological duplicates. FIG. 14D: Table representing read counts and percent of each GAPLINC isoform. FIG. 14E: Bi-directional vector expressing GFP-Zeocin on one side and GAPLINC on the other side. FIGS. 14F and 14G: qPCR analysis of GAPLINC expression in THP-1 cells expressing ectopic GAPLINC or empty-vector control. Levels of IL6 were quantified following stimulation with LPS (200 ng/ml) for 6 h; data pooled from three independent experiments. *p<0.05. FIG. 14H: qPCR analysis of GAPLINC in MDMs (n=3) pretreated with DMSO or BAY-7082 (10 uM), followed by LPS stimulation (200 ng/ml) for 6 h; data pooled from three independent experiments. *p<0.05. FIG. 14I: ATAC-seq analysis of monocytes and macrophages, untreated and treated with LPS (200 ng/ml) for 1 h, 6 h and 18 h.
Next, we examined GAPLINC levels in primary MDMs in response to inflammation. […] Induction of positive control inflammatory genes TNFα, IL6, and CCL5 was confirmed (FIGS. 16B-16D). […]
(In general: In qPCR the cycle at which signal appears reflects the starting amount.)

Take `Cc1ccc(S(=O)(=O)/C=C/C#N)cc1` [BAY11-7082]: the “downregulation of GAPLINC upon LPS stimulation” value is “impaired relative to control”.
